Patent US6780984B2, “Method for prognosing cancer and the proteins involved” (Northwestern University, priority 2000, dated 2004)

Legend:
[1] = tested on: PC3 cells; assay: Apoptosis induction by GFP fusion constructs transfected into PC3 cells; type: cell-based, human; settings: for role of domain in apoptosis induction: domain mapping / deletion mutagenesis, GFP fusions; for cells expressing the GFP fusion protein: 10 days in medium including 500 μg/ml geneticin (G418)
Description: (§1) FIGS. 16a-16c show the apoptosis induction by TRAITS activation. […] The GFP-TRAITS-ER protein is localized primarily in cytoplasm in the absence of OHT, as visualized under green fluorescent microscope. The fusion protein was translocated into nuclei 24 hours after treatment of the cells with 300 nM OHT and then condensed in the fragmented nuclei 48 hours after the OHT treatment. The condensed and fragmented nuclei of the OHT-treated PC3 cells were then visualized by Hoechst staining. […] The PC3 cells were cultured in the absence or presence of 300 nM OHT for 72 hours prior to FACS analysis. The figure represents one of the 3 different experiments.
(§2) Vector constructions and mutagenesis: The cDNAs of rat and human TRAITS were cloned into pEGFP C1, pEGFP N3, PM and pIRES2-EGFP(Clontech) by PCR. Deletion mutagenesis of TRAITS were generated by PCR and cloned into above first three vectors. The plasmids containing ER™ domain were kindly provided by G. Evan (UCSF, San Francisco). ER™ domain was cut with BamHI/EcoRI and recloned into pEGFP-TRAITS to generate a tripartite fusion protein. All constructions were verified by sequencing and transfected using Lipofectamine (Gibco), Super Fect reagent (Qiagen) or Fugene 6 (Roche). In stable transfection, 500 μg/ml geneticin (G418) was used for selection of positive clones.
Genomic structure and mutagenesis of TRAITS: TRAITS is composed of six exons (FIG. 18) which in humans encode respectively, 35 amino acid residues, 32 amino acid residues, 46 amino acid residues, 48 amino acid residues, 85 amino acid residues, and 14 amino acid residues (see FIG. 14a for exon junctions). In an effort to determine the role of individual domains, domain mapping was performed by fusing nucleic acids encoding GFP to nucleic acids encoding fragments of the TRAITS in pEGFPN3 vectors. The vectors was then used for transient and stable transfection of PC3 cells. The ability of the various constructs to induce apoptosis was determined.

[2] = tested on: ventral prostate; assay: C3(I)-TID-1 transgenic mice; type: in vivo, mouse; settings: transgenic vs non-transgenic littermates
Text: To study the role of TRAITS protein in the prostate in vivo, an expression vector, C3 (I)-TID-1, was generated that expresses TRAITS under the control of the prostate C3(I) promoter [Zhang et al., Prostate, 32:16-26 (1997)]. The C3(I) promoter is androgen-dependent and active only in the ventral prostate and testis. Two transgenic mouse lines were identified by PCR amplification of the tail genomic DNA using primers specific for the TRAITS transgene. […] The C3(I)-TID-1 transgenic mice are fertile.

[3] = tested on: PC3 cells; assay: Proliferation assay (cell numbers); type: cell-based, human; settings: ectopic expression, stably transfected PC3 sublines, culture in 6-well plates 4-5 days
Text: The cell numbers of the parental PC3, empty pcDNA3.1 vector transfected PC3 sublines M1 and M2, and pcDNA3.1-TID-1 transfected PC3 sublines 27, 41, and 44 were counted after culture in 6-well plates for 4 days.
The cell numbers of the parental PC3, empty pCMV-Tag vector transfected PC3 sublines fM1 and fM2, and pCMV-Tag-fTID-1 transfected PC3 sublines f33, f17, and f23 were counted after culture in 6-well plates for 5 days. The proliferation and soft agar assays are described in Methods of Example 3 below.
Proliferation assay: Cells were plated onto 6-well plates in triplicate at 50,000 cells/well and cultured in RPMI 1640 medium supplemented with 10% fetal bovine serum (FBS), and 1% penicillin/streptomycin. The cells were trypsinized and counted each day afterwards for a five-day time course. The data were plotted using the GraphPad Prism software. The error bars represent SEM and they are difficult to see when SEM is very small. The cell proliferation assay was repeated 3 times and the results were very reproducible.

[4] = tested on: human prostate cancer cell lines (LNCaP, PC3, DU145 and TSU), rat Dunning prostate tumor cell lines, NIH3T3 and Hela; assay: Cell death after transient transfection of TRAITS expression vectors; type: cell-based
Text: as §2
(§3) Cell death assays flow cytometry analysis: In flow cytometry analysis, cells cultured under the indicated conditions were harvested for staining with the TACS™ Annexin V-Biotin apoptosis detection kit (R & D systems). Propidium iodide was used for nuclei staining and Cy5 was conjugated to Annexin V-biotin. Apoptosis of Annexin V-positive cells was analyzed by FACS. Hoechst 33342 (Molecular Probes) was used for nuclear condensate staining and DNA fragmentation assay.
To further characterize the function of TRAITS, green fluorescent protein (GFP) was tagged to TRAITS at its N-terminal or C-terminal ends using pEGFP C1 and pEGFP N3 vector, respectively (Clontech). […]

[5] = tested on: CAT reporter gene expression; assay: Mammalian two-hybrid analysis, CAT reporter assay in NIH3T3 cells; type: cell-based
Description: (§4) A non-specific complex (*) in the presence of GST-TRAITS was also formed in the presence of GST only. Labeled free DNA (F) was also indicated. […] NIH3T3 cells were transiently transfected with empty vector (PM) or vectors expressing the full-length rat TRAITS (residues 1-262 of SEQ ID NO:14), its N-terminal (residues 1-113 of SEQ ID NO:14), or its C-terminal (residues 114-262 of SEQ ID NO:14) plus pG5CAT reporter and pSV-β-gal for normalization. Assays were performed after 24 hours of transfection. The fold activation of CAT reporter is shown with S.E.M. Assays were performed in triplicate in two separate experiments.
CAT reporter assays: CAT activities were assayed 24 hours after transfection. NIH3T3 cells were grown in 6-well plates and transfected using Superfect (Qiagen). For transient transfection, 2 μg of PM constructions, 2 μg of pSVβ-gal (internal control) and 2 μg of pG5CAT (Clontech) were used per well. The level of CAT protein in cell extracts was determined using a CAT ELASA kit (Roche) according to the manufacturer. Protein concentration was measured using a Dc protein Assay kit (Bio-Rad). β-Galactosidase activity was measured by incubating with ONPG (o-nitrophenyl-β-D-galactopyranoside) solution. Data are reported as means ±S.E.M. of two separate experiments performed in triplicate.

[6] = tested on: PC3 cells; assay: Soft agar assay (anchorage-independent growth); type: cell-based, human; settings: stable overexpression in PC3 sublines
Description: FIGS. 4A-4D show the effect of calreticulin overexpression on colony formation of PC3 cells in a soft agar assay, PC3 (FIG. 4A), Mock (FIG. 4B), Crt 35 (FIG. 4C) and Crt 59 (FIG. 4). The soft agar assay was conducted in 6-well plates. The bottom agar is 2 ml 0.6% noble agar containing 1×RPMI 1640 medium supplemented with 10% fetal bovine serum (FBS). After the preparation of bottom agar, 1 ml of 0.3% top agar containing 5,000 cells and 1×RPMI 1640 medium supplemented with 10% FBS was added to form the top layer. The assay for each PC3 subline was carried out in duplicate and was repeated at least 3 times.
Colonies with greater than 125 um in diameter were counted in the quantification. Error bars represent standard error means (SEM).
Soft agar assay: The soft agar assay was conducted in 6-well plates. The bottom agar is 2 ml 0.6% noble agar containing 1×RPMI 1640 medium supplemented with 10% FBS. After the preparation of bottom agar, 1 ml of 0.3% top agar containing 5,000 cells and 1×RPMI 1640 medium supplemented with 10% FBS was added to form the top layer. The assay for each PC3 subline was carried out in duplicate and was repeated at least 3 times.

[7] = tested on: DNA sequence ACTTTA (T-box); assay: Electrophoretic mobility shift assay (EMSA); type: binding; settings: competed by cold T-wt but not by cold T-mut
Description: as §4
Two oligonucleotides: T-wt: (5′-[…] GAAGCTTACGTCGCG-3′ SEQ ID NO:33) and T-mut: (5′-[…] CGAAGCTTACGTCGCG-3′ SEQ ID NO:34) were synthesized and amplified by PCR. T4 polynucleotide kinase (Promega) was used to label T-wt & T-mut by [γ-^32P] ATP (NEN). Recombinant GST-TRAITS fusion protein was incubated with 500 μg poly [dI-dC] and EMSA was performed according to the protocol provided by Gel Shift Assay System (Promega).

[8] = tested on: LNCaP; assay: Stable transfection of LNCaP with CMV-fTID-1; type: cell-based, human; settings: two different experiments
Text: The CMV-fTID-1 expression vector was also transfected into LNCaP, an androgen-responsive human prostate cancer cell line [Horoszewicz et al., Cancer Research 43:1809-18 (1983)], in two different experiments. […] The expression of the endogenous TID-1 gene was also not detected in the rat Dunning tumor cell lines (FIGS. 10A-10B) and various human prostate cancer cell lines including LNCaP, PC3, DU145, and TSU cells. […] Stable expression was observed using a CMV promoter-based expression vector. Clonal variations of stably transfected cells can be minimized by assaying multiple, (e.g., three) independent stably transfected sublines.

[9] = tested on: PC3 cells transfected with the tripartite fusion protein; assay: FACS analysis of annexin V staining; type: cell-based, human; settings: 300 nM OHT for 72 hours, cells expressing GFP-TRAITS-ER
Description: as §1, §3

[10] = tested on: AT6.1 xenograft prostate tumor; assay: AT6.1 prostatic xenograft tumor growth in nude mice; type: in vivo
Text: The tamoxifen pellets were implanted at the time of AT6.1 cell injection. The error bars represent S.E.M. The tamoxifen inhibition of AT6.1 tumor growth was statistically significant (p<0.005) at every time point of tumor measurement. […] The loading of total RNA was visualized by methylene blue staining. FIG. 17c is the northern blot analysis of TRAITS expression in rat prostatic tissues and cancer cell lines. The loading of total RNA was visualized by methylene blue staining. […] Affinity purified anti-human TRAITS polyclonal antibody was used in immunostaining of radical prostatectomy specimens from 8 patients with advanced prostate cancer (Gleason-score 7 to −10). […] A typical TRAITS down-regulation was shown with 20× objective (left) and the boxed area shown at high magnification (middle). A parallel staining without primary antibody (right) was conducted as a control. Blue arrows with solid line point to benign epithelial cells whereas red arrows with broken line indicate cancerous cells.
Tumor growth: To determine their tumorigenicity, AT6.1 cells were injected subcutaneously (1×10^5 cells) into 4-6 week old male nu/nu mice (NCI). […] Tumor sizes were calculated using formula V=π×h (h^23a^2)/6, a=(L((+))W)/4 (Nature, 405:354-359) and the Student's t-test (two-tailed) was performed to analyze statistical significance using the SPSS 10.0 software (SPSS Inc., Chicago, Ill.).

Molecule: exon III: TRAITS fragment corresponding to amino acids 68-113 of SEQ ID NO:18, fused to GFP
- role of domain in apoptosis induction [1]: both necessary and sufficient to induce apoptosis

Molecule: TID-1: novel testosterone regulated apoptosis inducer and tumor suppressor; transcription factor, SEQ ID NOs:14 (rat), 16 (mouse), 18 (human)
- enhancement of epithelial cell number per unit area in the ventral prostate [2]: 2-3 fold
- reduction in cell numbers [3]: 2 fold
- programmed cell death phenotype of transfected cells [4]: efficiently induced chromatin condensation and cell death
- transactivation of CAT reporter gene expression ([5]; 24 hours after transfection): more than 40 fold
- colony formation in soft agar [6]: inhibition of the size and number of colonies

Molecule: GST-TRAITS: E. coli-purified GST-TRAITS fusion protein
- binding to labeled T-box containing DNA [7]: forms a DNA-protein complex

Molecule: EAF1: protein with sequence homology to TRAITS, SEQ ID NO:20; tested as GFP fusion
- cell death ([1]; GFP fusion proteins from pEGFP N3, human and mouse): cause cell death

Molecule: fTID-1: FLAG tagged TID-1 protein expressed from pCMV-Tag-fTID-1
- reduction in cell numbers [3]: 2 fold
- recovery of clones expressing fTID-1 [8]: no LNCaP clones expressing fTID-1 were found

Molecule: N-terminal region of TRAITS: approximately amino acids 1-113 of TID-1, fused to GFP
- cells expressing the GFP fusion protein [1]: none of the cells were found to express the N-terminal fusion protein
- role of domain in apoptosis induction [1]: necessary and sufficient for inducing apoptosis

Molecule: 4-hydroxytamoxifen [OHT]
- apoptotic cells (annexin V) [9]: 60.7%

Molecule: CC/C(=C(\c1ccccc1)c1ccc(OCCN(C)C)cc1)c1ccccc1 [tamoxifen]
- growth of xenograft tumors from parental or GFP-ER transfected AT6.1 cells ([10]; tamoxifen administration, parallel experiments): no detectable influence
- growth of xenograft tumors from AT6.1 sublines expressing GFP-TRAITS-ER ([10]; tamoxifen pellets implanted at cell injection, p<0.005): significantly inhibited

B1: C-terminal region: remaining approximately 147-149 amino acids of TID-1 containing the transactivation domain (protein)
chain: GEGSSKIQCRLEQQQQQMWNPPRTSNLVQHSPSEDKLSPTSLMDDIERELKAEASLMDQMSSCDSSSDSRSSSSSSSEDSSSDSEDDDRSSPSGPRRYSSEHPSVSAGPQYRTSDADTTCNRLYDNSALLMSTLRSDLQLSESDSDSED
- cells expressing the GFP fusion protein [1]: many of the cells expressed the C-terminal fusion protein
- role of domain in apoptosis induction [1]: not required for TRAITS to induce apoptosis
- transactivation relative to full-length (deletion mutagenesis) ([5]; deletion of the N-terminal region): enhance the transactivation
